How the values were obtained:
Glutamate NMDA receptor [1] = assay: Functional NMDA receptor antagonism expressed as inhibition of NMDA/glycine induced increase in cytosolic calcium in cultured rat cerebellar granule cells
Glutamate NMDA receptor [2] = assay: Potency towards NMDA receptor measured as inhibition of (+)-[3-3H]MK-801 binding from synaptic plasma membrane obtained from rat cortex

Row | SMILES | IC50 (Glutamate NMDA receptor [1]) [nM] | IC50 (Glutamate NMDA receptor [2]) [nM]
1 | C[C@@H](CN)C(c1cccc(F)c1)c1cccc(F)c1 | 75 | 141
2 | NCCC(c1cccc(F)c1)c1cccc(F)c1 | 63 | 230
3 | C[C@H](CN)C(c1cccc(F)c1)c1cccc(F)c1 | 384 | 2000

From ChEMBL document CHEMBL1131782, “Synthesis, biological activity, and absolute stereochemical assignment of NPS 1392: a potent and stereoselective NMDA receptor antagonist” (Bioorg Med Chem Lett, 1999)
